Assay results taken from US20180200257A1, “METHODS FOR THE TREATMENT OF INFLAMMATORY DISORDERS” (Galapagos NV, priority 2015, published 2018).

Columns and labels:
[1] = system: subjects with moderately to severely active RA who have an inadequate response to methotrexate (MTX); experiment: Study 2 (monotherapy) - serum CRP values; format: in vivo, human
From the text: Randomized, double-blind, placebo-controlled, multicenter, phase IIb dose finding study of Compound 1 (dosed as a [Compound 1:HCl:3H2O]) administered for 24 weeks as monotherapy to subjects with moderately to severely active rheumatoid arthritis who have an inadequate response to methotrexate alone
Double-blind, placebo-controlled, monotherapy study in subjects with moderately to severely active RA who have an inadequate response to methotrexate (MTX) (oral or parenteral).
280 subjects randomized to one of 3 doses of Compound 1 (dosed as a [Compound 1:HCl:3H2O]) or to placebo, given once daily (q.d.).
Twelve weeks of treatment with Compound 1 (dosed as a [Compound 1:HCl:3H2O]) at 50 mg, 100 mg, or 200 mg q.d.; or placebo. At Week 12, all subjects on placebo and the subjects on the 50 mg dose who have not achieved 20% improvement in swollen joint count (SJC66) and tender joint count (TJC68) will be assigned to 100 mg q.d. in a blinded fashion and will continue treatment until Week 24. Subjects in the other groups will maintain their randomized treatment until Week 24.
CRP determination is available at Quest Diagnostics, Clinical Trials, Quest House, 125-135 Staines Road, Hounslow, Middlesex, TW3 3JB, United Kingdom under Catalogue n#86140.
The determination of CRP is made using Immunoturbidimetric assay for the in vitro quantitative determination of CRP in human serum and plasma on Roche/Hitachi cobas c systems, wherein human CRP agglutinates with latex particles coated with monoclonal anti-CRP antibodies. The aggregates are determined turbidimetrically (Eda et al., 1998; Price et al., 1987).
Human serum and plasma samples CRP determination was done on a Roche/Hitachi Cobas c 301 c 501/502 system which automatically calculate the analyte concentration of each sample. Samples containing precipitates are centrifuged before performing the assay.
The machine parameters are listed in Table XCI and Table XCII below, and the results at 12 weeks v using either LOCF are shown in Table XCIII and below. The Hommel-corrected p-value for the pairwise comparisons of each group with placebo is shown.
The number of subjects (N) provided in each groups corresponds to the number of subjects starting the study in each group, and the CRP data reported below corresponds to the responding subjects continuing for the entire 24 weeks on their initial treatment course.

[2] = system: Subjects With Active Crohn's Disease With Evidence of Mucosal Ulceration; experiment: Study 3 - CDAI component PRO2 score; format: in vivo, human; conditions: 200 mg
From the text: Double-Blind, Randomized, Placebo-Controlled, Multi-Centre Study to Investigate the Efficacy and Safety of Compound 1 in Subjects With Active Crohn's Disease With Evidence of Mucosal Ulceration. This is a double-blind, randomized, placebo-controlled, multi-centre Phase 2 study to investigate the efficacy and safety of Compound 1 administered once daily for the treatment of active CD with evidence of mucosal ulceration. The pharmacokinetics (including a PK substudy) and pharmacodynamics of Compound 1 and metabolite in CD will also be characterised. A total of 180 eligible subjects will be randomized to receive Compound 1 or placebo in addition to their stable background treatment (eg, corticosteroids, aminosalicylates, or CD-related antibiotics). The study will consist of 2 parts, with total treatment duration of 20 weeks. Randomization in Part 1 will be stratified according the subject's previous anti-TNF exposure/response, CRP level at Screening, and oral corticosteroid use at visit Day −1. After the first 10 weeks of treatment in Part 1, patients will be re-randomized for Part 2 as shown in the diagram below and will be stratified according to the subject's clinical response, previous anti-TNF exposure/response, and oral corticosteroid use at visit Day -1. [table] Within the CDAI score measurement parameters, the PRO2 score, based on the stool frequency (SF) and abdominal pain (AP) components of the CDAI, was also measured. The PRO2 score is calculated as follows: PRO2=7 x (mean daily number of liquid or very soft stools)+7×(mean daily abdominal pain score). This score provides a measurement of the symptoms improvement of the patient.

For `O=C(Nc1nc2cccc(-c3ccc(CN4CCS(=O)(=O)CC4)cc3)n2n1)C1CC1` [Compound 1, cyclopropanecarboxylic acid {5-[4-(1,1-dioxo-thiomorpholin-4-ylmethyl)-phenyl]-[1,2,4]triazolo[1,5-a]pyridin-2-yl}-amide], the “CRP mean CFB mg/L (LOCF)” value ([1]; 50 mg q.d., week 1, 12 weeks results) was -3.70 mg/L, the “CRP mean CFB mg/L (LOCF)” value ([1]; 50 mg q.d., week 2, 12 weeks results) was -4.16 mg/L and the “CRP mean CFB mg/L (LOCF)” value ([1]; 50 mg q.d., week 4, 12 weeks results) was -9.46 mg/L. The “CRP mean CFB mg/L (LOCF)” value ([1]; 50 mg q.d., week 12, 12 weeks results) was -4.43 mg/L, the “CRP mean CFB mg/L (LOCF)” value ([1]; 50 mg q.d., week 8, 12 weeks results) was -11.16 mg/L and the “CRP mean CFB mg/L (LOCF)” value ([1]; 100 mg q.d., week 1, 12 weeks results) was -10.33 mg/L. For the same compound, the “CRP mean CFB mg/L (LOCF)” value ([1]; 100 mg q.d., week 2, 12 weeks results) was -8.67 mg/L, the “CRP mean CFB mg/L (LOCF)” value ([1]; 100 mg q.d., week 4, 12 weeks results) was -12.08 mg/L and the “CRP mean CFB mg/L (LOCF)” value ([1]; 100 mg q.d., week 12, 12 weeks results) was -12.25 mg/L. The “CRP mean CFB mg/L (LOCF)” value ([1]; 100 mg q.d., week 8, 12 weeks results) was -14.17 mg/L, the “CRP mean CFB mg/L (LOCF)” value ([1]; 200 mg q.d., week 1, 12 weeks results) was -12.58 mg/L and the “CRP mean CFB mg/L (LOCF)” value ([1]; 200 mg q.d., week 2, 12 weeks results) was -13.28 mg/L. For the same compound, the “CRP mean CFB mg/L (LOCF)” value ([1]; 200 mg q.d., week 4, 12 weeks results) was -13.04 mg/L, the “CRP mean CFB mg/L (LOCF)” value ([1]; 200 mg q.d., week 12, 12 weeks results) was -14.85 mg/L and the “CRP mean CFB mg/L (LOCF)” value ([1]; 200 mg q.d., week 8, 12 weeks results) was -13.86 mg/L. For the same compound, the “PRO2 mean, baseline” value ([2]; Baseline, LOCF) was 52.4, the “PRO2 mean CFB, W 10” value ([2]; week 10, LOCF) was −21.9 and the “PRO2 remission (PRO2 ≤ 28)” value ([2]; week 10, LOCF) was 55%. For the same compound, the “PRO2 response (mean daily number of liquid or very soft stools ≤ 3, mean daily abdominal pain ≤ 1)” value ([2]; week 10, LOCF) was 38%, the “PRO2 remission (PRO2 ≤ 28)” value ([2]; week 10, NRI) was 50% and the “PRO2 response (mean daily number of liquid or very soft stools ≤ 3, mean daily abdominal pain ≤ 1)” value ([2]; week 10, NRI) was 34%.
